From patent publication US20070015723A1, “Antiviral oligonucleotides having a conserved G4 core sequence” (priority 1992, published 2007)
Several values for one entry are separate records, joined by “and”; a condition that tells them apart may be missing. Equal values may be shown once. Read-outs that look alike come from different tables or passages of the source. Strand notation (5' to 3'): a small letter for the sugar, then the base; units joined by * are phosphorothioate-linked, units joined directly phosphodiester-linked; [ ] holds rarer units or linkages, { } end groups; capitals alone tell only the bases. d = 2'-deoxy (DNA)

Tests used:
HSV-2 strain E194 = assay type: cell-based
HSV-2 = experiment: HSV ELISA assay, HSV-2; assay type: cell-based
HSV1-PAAr = experiment: microbe, parasite or virus in culture; assay type: cell-based, HSV-1
HSV1-DM2.1 = experiment: microbe, parasite or virus in culture; assay type: cell-based, HSV-1
HSV1-McKrae = experiment: HSV ELISA assay, strain HSV1-McKrae; assay type: cell-based, HSV-1
HSV1-F = experiment: HSV ELISA assay, strain HSV1-F; assay type: cell-based, HSV-1
vaccinia virus = assay type: cell-based
[1] = system: rhinovirus 2 (R-2), strain HGP; assay type: cell-based, human rhinovirus
[2] = system: Adenovirus, Type 5 (A-5), strain Adenoid 75; assay type: cell-based
[3] = system: influenza strain A/NWS/33 (H1N1); assay type: cell-based, influenza virus
[4] = system: respiratory syncytial virus (RSV) strain Long; assay type: cell-based
CD4/gp120 interaction = CD4/gp120 interaction (Human immunodeficiency virus type 1 group M subtype B, UniProt P03375); settings: ELISA; Callahan et al.; cited from earlier work
HSV-1 (KOS) [5] = experiment: HSV-1 infection ELISA assay; assay type: cell-based
[6] = target: Apis mellifera phospholipase A2 (Apis mellifera, UniProt P00630)
[7] = target: Bovine pancreatic phospholipase A2 (Bos taurus, UniProt P00593)
[8] = system: Phospholipase A2 isolated from the venom of Trimeresurus flavoridis; experiment: Phospholipase A2 enzyme assay, Trimeresurus flavoridis venom enzyme; assay type: biochemical
[9] = system: Crotalus durissus terrificus phospholipase A2
[10] = target: T1, human type II phospholipase A2 (Homo sapiens, UniProt P14555); experiment: Human type II phospholipase A2 enzyme assay (3H-oleic acid labelled E. coli substrate); assay type: biochemical
T1 sequence (P14555 21-144): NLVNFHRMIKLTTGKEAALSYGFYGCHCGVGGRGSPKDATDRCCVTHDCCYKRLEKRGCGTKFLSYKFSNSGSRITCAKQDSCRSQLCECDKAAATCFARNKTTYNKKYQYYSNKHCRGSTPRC

HSV-1 (KOS) [11] = experiment: Effect of time of oligonucleotide addition on HSV-1 inhibition (NHDF cells, ELISA); assay type: cell-based; parameters: dose or concentration left out as unconfirmed; settings: added at the time of virus infection (t=0)
HIV-1IIIB = experiment: Acute HIV infection assay (XTT, CEM cells); settings: inhibition of HIV
human cytomegalovirus = experiment: Cytomegalovirus inhibition ELISA assay; assay type: cell-based; settings: HCMV
[12] = 1 μM, Table 5, two separate experiments
[13] = 50% inhibition of HSV replication relative to control infected cells, Table 1

Sequence of Bovine pancreatic phospholipase A2 (P00593 23-145): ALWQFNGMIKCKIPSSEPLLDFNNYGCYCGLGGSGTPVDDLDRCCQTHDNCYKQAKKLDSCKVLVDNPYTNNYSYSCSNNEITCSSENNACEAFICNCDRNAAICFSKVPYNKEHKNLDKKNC

## Nc1nc2c(ncn2COCCO)c(=O)[nH]1 [ACV, 9-(2-hydroxyethoxymethyl)guanine]
HSV-2 strain E194
  ED50: 97700 nM
HSV-2; Human alphaherpesvirus 2
  EC50: 2000 nM
HSV1-PAAr; Human alphaherpesvirus 1
  EC50: > 3000 nM
HSV1-DM2.1; Human alphaherpesvirus 1
  EC50: > 3000 nM
HSV1-McKrae; Human alphaherpesvirus 1
  EC50: 1800 nM
HSV1-F; Human alphaherpesvirus 1
  EC50: 700 nM

## Nc1ncnc2c1ncn2[C@@H]1O[C@H](CO)[C@@H](O)[C@@H]1O [Ara-A, 9-(β-D-arabinofuranosyl)adenine]
Vaccinia virus; Vacc
  ED50: 15800 nM

## NC(=O)c1ncn([C@@H]2O[C@H](CO)[C@@H](O)[C@H]2O)n1 [Ribavirin]
[1]
  ED50: 229000 nM
[2]
  ED50: 82000 nM
[3]
  ED50: 7780 nM
[4]
  ED50: 49000 nM

## Dextran sulfate
CD4/gp120 interaction
  effect on the gp120/CD4 interaction: does not prevent the gp120/CD4 interaction

## ISIS 1082: GCCGAGGTCCATGTCGTACGC, SEQ ID NO 134; negative control, complementary to HSV UL13 translation initiation codon, no runs of G (dG*dC*dC*dG*dA*dG*dG*dT*dC*dC*dA*dT*dG*dT*dC*dG*dT*dA*dC*dG*dC)
HSV-2
  EC50: 2000 nM
HSV1-PAAr; HSV1-PAAr (resistant to ACV), read-out: EC50
  EC50: > 3000 nM
HSV-1 (KOS) [5]; HSV-1 (KOS strain), Table 9, some in duplicate
  EC50: 2500 nM and 1800 nM
HSV-1 (KOS) [5]; HSV-1 (KOS), Table 10
  EC50: 2100 nM
HSV1-DM2.1; HSV1-DM2.1 (resistant to ACV), read-out: EC50
  EC50: > 3000 nM
HSV1-McKrae
  EC50: > 3000 nM
HSV1-F
  EC50: > 3000 nM

## ISIS 3196: GGG T GGG T ATA G AAG G GCT CC, P = S, SEQ ID NO 47 (GGGTGGGTATAGAAGGGCTCC; all phosphorothioate, sugars by position and methylation of C not given here)
[6]
  IC50: > 100000 nM
[7]
  IC50: ~100000 nM
[8]
  IC50: > 10000 nM
[9]
  IC50: ~300 nM
[10]; 1 μM
  inhibition of human type II phospholipase A2: completely inhibited
[10]; 1 μM, Table 4
  % Inhibition (1 μM): 98.5%
[10]; [12]
  % Inhibition (1 μM): 100% and 76.2%
[10]; FIG. 5
  IC50: ~150 nM
[10]; increasing E. coli substrate, ISIS 3481 at 0.2 μM and 2 μM
  effect on substrate kinetics: apparent noncompetitive inhibitor
[10]; not boiled
  inhibitory activity (% inhibition): 94%
[10]; placed in boiling water for 15 minutes prior to assay
  inhibitory activity (% inhibition): 21%
HSV-1 (KOS) [5]; [13]
  EC50: 200 nM

## ISIS 3383: scrambled version of ISIS 1082, SEQ ID NO: 122; negative control oligonucleotide (TGGGCACGTGCCTGACACGGC; chemistry not given here)
[1]
  ED50: >100000 nM
HSV-1 (KOS) [11]
  inhibition of HSV replication: inhibited HSV replication
HSV-2 strain E194
  ED50: 2800 nM
  TI: >36
[2]
  ED50: >100000 nM
[3]
  ED50: 19000 nM
  TI: >5
[4]
  ED50: 700 nM
  TI: 60
Vaccinia virus
  ED50: >100000 nM

## ISIS 4560: GGGG C GGGG C GGGG C GGGG C G, P = S, SEQ ID NO 42 (dG*dG*dG*dG*dC*dG*dG*dG*dG*dC*dG*dG*dG*dG*dC*dG*dG*dG*dG*dC*dG)
HIV-1IIIB
  IC50: 140 nM
Human cytomegalovirus
  IC50: 150 nM
[10]; 1 μM, Table 4
  % Inhibition (1 μM): 100%
HSV-1 (KOS) [5]; [13]
  EC50: 180 nM

## ISIS 4672: GGG T GGG T ATA G, P = S, SEQ ID NO 50 (GGGTGGGTATAG; all phosphorothioate, sugars by position not given here)
[10]; [12]
  % Inhibition (1 μM): 73.9% and 94.6%
HSV-1 (KOS) [5]; [13]
  EC50: 200 nM

## ISIS 4717: GG GGT TGG GG, P = S, SEQ ID NO 26 (GGGGTTGGGG; all phosphorothioate, sugars by position not given here)
HIV-1IIIB
  IC50: 410 nM
Human cytomegalovirus
  IC50: 1000 nM
[10]; [12]
  % Inhibition (1 μM): 83.1%
HSV-1 (KOS) [5]; [13]
  EC50: 600 nM

## ISIS 4873: CAT GAC CGG GGC, P = S, SEQ ID NO 4 (CATGACCGGGGC; all phosphorothioate, sugars by position and methylation of C not given here)
HIV-1IIIB
  IC50: 1000 nM
HSV-1 (KOS) [5]; [13]
  EC50: 1400 nM and 1000 nM

## ISIS 4897: CAC GGG GTC GCC GAT, P = S, SEQ ID NO 31 (CACGGGGTCGCCGAT; all phosphorothioate, sugars by position and methylation of C not given here)
HIV-1IIIB
  IC50: 430 nM
HSV-1 (KOS) [5]; [13]
  EC50: 130 nM
